Data: patent publication US7358258B2, “Prodrugs of an ERK protein kinase inhibitor” (Vertex Pharmaceuticals Incorporated, priority 2004, dated 2008)
≈ marks a conversion by molar mass, not a printed value. Counter-ions that a name gives are not always drawn. Values belong to the compound of their own block, whether it stands above or below them.

Assay: Water solubility at the designated pH
Type: physicochemical
Description: As described herein, the present compounds are useful as prodrugs and, accordingly, impart improved physical and/or physiological characteristics over the parent compound. Such characteristics include half-life and water solubility. In certain embodiments, a compound of the present invention provides improvement with regard to one or more physical or physiological characteristics. In other embodiments, a compound of the present invention imparts improvement with regard to one or more physical and physiological characteristics. A summary of the results of comparison between certain compounds of the present invention and the parent compound is set forth in Table 3 below wherein all pharmacokinetic data reported was obtained in rat.
As used herein, the phrase “Relative AUC” refers to the ration of the area under the curve for a compound of the present invention and the area under the curve for the parent compound. Unless otherwise indicated, the data was obtained for the designated compound as the free base. The term “T½ (hr)” refers to the half life of the compound in hours. As used in Table 3, the term “Solubility” relates to the water solubility of the designated compound in mg per mL at the designated pH.

Compound: CC[C@H](COC(=O)[C@@H](NC)C(C)C)Nc1ncc(C)c(-c2c[nH]c(C(=O)N[C@H](COC(=O)[C@@H](NC)C(C)C)c3cccc(Cl)c3)c2)n1 [I-20 (HCl salt), 3-Methyl-2-methylamino-butyric acid 2-(4-{5-[1-(3-chloro-phenyl)-2-(3-methyl-2-methylamino-butyryloxy)-ethylcarbamoyl]-1H-pyrrol-3-yl}-5-methyl-pyrimidin-2-ylamino)-butyl ester, tris HCl salt]
solubility (water solubility at pH 3.8): 7710 µg/mL

Compound: CC[C@H](COC(=O)COCCOC)Nc1ncc(C)c(-c2c[nH]c(C(=O)N[C@H](COC(=O)COCCOC)c3cccc(Cl)c3)c2)n1 [I-21 Ms salt]
solubility (water solubility at pH 2.5): 12400 µg/mL

Compound: CCC(CO)Nc1ncc(C)c(-c2c[nH]c(C(=O)NC(CO)c3cccc(Cl)c3)c2)n1 (centres unmarked) [Parent, 4-[2-(1-hydroxymethyl-propylamino)-5-methyl-pyrimidin-4-yl]-1H-pyrrole-2-carboxylic acid [1-(3-chloro-phenyl)-2-hydroxy-ethyl]-amide, reference compound]
solubility (water solubility at pH 1): 4700 µg/mL (≈ 10.6 mM)
solubility (water solubility at pH 7): 15 µg/mL (≈ 0.0338 mM)

Compound: CC[C@H](COC(C)=O)Nc1ncc(C)c(-c2c[nH]c(C(=O)N[C@H](COC(C)=O)c3cccc(Cl)c3)c2)n1 [I-1 (HCl salt)]
solubility (water solubility at pH 2.2): 19000 µg/mL

Compound: CC[C@H](COP(=O)(O)O)Nc1ncc(C)c(-c2c[nH]c(C(=O)N[C@H](COP(=O)(O)O)c3cccc(Cl)c3)c2)n1 [I-23 (Na salt)]
solubility (water solubility at pH 7.15): 3800 µg/mL

More lines, now with the values ahead:

solubility (water solubility at pH 6.87): 12600 µg/mL (≈ 19.6 mM)
Compound: CC[C@H](COC(=O)CCC(=O)O)Nc1ncc(C)c(-c2c[nH]c(C(=O)N[C@H](COC(=O)CCC(=O)O)c3cccc(Cl)c3)c2)n1 [Compound I-18, Succinic acid, mono-[2-(4-{5-[2-(3-carboxy-propionyloxy)-1-(3-chloro-(S)-phenyl)-ethylcarbamyl]-1H-pyrrol-3-yl}-5-methyl-pyrimidin-2-ylamino)-(S)-butyl]ester]

solubility (water solubility at pH 3.3): 11500 µg/mL (≈ 17.9 mM)
Compound: CC[C@H](COC(=O)[C@@H](N)C(C)C)Nc1ncc(C)c(-c2c[nH]c(C(=O)N[C@H](COC(=O)[C@@H](N)C(C)C)c3cccc(Cl)c3)c2)n1 [Compound I-10, 2-(S)-Amino-3-methyl-butyric acid 2-(4-{5-[2-(2-(S)-amino-3-methyl-butyryloxy)-1-(3-chloro-(S)-phenyl)-ethylcarbamoyl]-1H-pyrrol-3-yl}-5-methyl-pyrimidin-2-ylamino)-(S)-butyl ester]
